Read-outs that look alike come from different tables or passages of the source.
Assays:
MycC = target: T1, MycC (Homo sapiens, UniProt P01106); test: Degradation of MycC protein in L363 cells (JESS/Western blot); format: cell-based; conditions: for Dmax at 0.5 µM: read-out: % Degradation of MycC (L-363) 24 h, 0.5 μM; for Dmax at 1 µM: read-out: % Degradation of MycC (L-363) 24 h, 1 μM; for Dmax at 3 µM: read-out: % Degradation of MycC (L-363) 24 h, 3 μM; for Dmax at 6 µM: read-out: % Degradation of MycC (L-363) 24 h, 6 μM
T1 construct: endogenous in cells; host or cells: L363
T1 sequence (P01106 whole entry): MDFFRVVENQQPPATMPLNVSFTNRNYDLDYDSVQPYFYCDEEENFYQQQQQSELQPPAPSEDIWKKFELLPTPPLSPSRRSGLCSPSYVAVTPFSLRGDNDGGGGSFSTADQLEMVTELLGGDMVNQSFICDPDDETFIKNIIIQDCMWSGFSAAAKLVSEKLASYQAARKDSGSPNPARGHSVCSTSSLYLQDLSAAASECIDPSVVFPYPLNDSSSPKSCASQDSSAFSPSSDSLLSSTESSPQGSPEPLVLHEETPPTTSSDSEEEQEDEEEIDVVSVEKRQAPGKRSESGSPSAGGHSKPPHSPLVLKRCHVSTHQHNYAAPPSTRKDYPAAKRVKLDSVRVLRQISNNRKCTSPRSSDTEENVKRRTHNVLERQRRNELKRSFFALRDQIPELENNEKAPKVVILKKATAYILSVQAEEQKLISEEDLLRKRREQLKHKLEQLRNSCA
Method: (§1) For L363 cells (suspension), 1E6 cells were plated into each well of a 6 well plate. For SK—N-BE(2) cells (adherent), 5E5 cells were plated into each well of a 6 well dish. […] All compounds were diluted to 10 mM in DMSO. Cells were treated with the compound for 24 hrs, then for both cell types, media containing cells were removed from wells into a 15 ml centrifuge tube, and remaining adherent SK—N-BE(2) cells were also scraped from the wells into the appropriate tubes. Tubes were centrifuged, cells were washed with PBS then re-centrifuged to pellet cells. A RIPA buffer cocktail was added to the cells on ice for 5 mins. Cell lysates were clarified by centrifugation and stored at −80 degrees until required. BCA assay was performed on each lysate to determine the protein concentration. For validation studies of antibodies, lysates and antibodies were used at a number of concentrations (Lysates: 2, 1, 0.2 mg/ml; Antibodies: 1 in 50, 1 in 200 dilution). Once an appropriate lysate concentration and antibody concentration was determined, samples were screened in the JESS technology (Protein Simple, San Jose, CA—https://www.proteinsimple.com/jess.html). Target protein antibodies (n-myc and c-myc) were detected in the chemiluminescence channel and loading controls (tubulin and GAPDH) were detected using a Near Infra Red (NIR) labeled secondary antibody. For SK—N-EB2 adherent cells, 5E5 cells in 1.9 mls media were plated into 6 well dishes and incubated for 24 hrs. […] Cells were scrapped off the plate, centrifuged, washed with PBS, centrifuged, then a RIPA buffer cocktail added to the cells (100 ul), centrifuged and stored at −80 for later analysis. For L363 suspension cells, 1E6 cells were plated into 24 well dishes (950 ul media) and incubated for 24 hrs. […] Cells were aspirated into tubes, centrifuged, washed with PBS, centrifuged, then a RIPA buffer cocktail added to the cells (100 ul), centrifuged and stored at −80 for later analysis. For Western blot, a BCA (total protein) assay was run on all samples, these were then run in batches of 5 compounds plus control (DMSO) on each Western blot run—n-myc and c-myc were run in separate experiments in the chemiluminescence channel. Both tubulin and GAPDH were run as loading controls in all lanes in the near infra red channel.

MycN = target: T2, MycN (Homo sapiens, UniProt P04198); test: Degradation of MycN protein in SK-N-BE(2) cells (JESS/Western blot); format: cell-based; conditions: for Dmax at 0.5 µM: read-out: % Degradation of MycN (SKNBE2) 24 h, 0.5 μM; for Dmax at 1 µM: read-out: % Degradation of MycN (SKNBE2) 24 h, 1 μM; for Dmax at 3 µM: read-out: % Degradation of MycN (SKNBE2) 24 h, 3 μM; for Dmax at 6 µM: read-out: % Degradation of MycN (SKNBE2) 24 h, 6 μM
T2 construct: endogenous in cells; host or cells: SK-N-BE(2)
T2 sequence (P04198 1-464): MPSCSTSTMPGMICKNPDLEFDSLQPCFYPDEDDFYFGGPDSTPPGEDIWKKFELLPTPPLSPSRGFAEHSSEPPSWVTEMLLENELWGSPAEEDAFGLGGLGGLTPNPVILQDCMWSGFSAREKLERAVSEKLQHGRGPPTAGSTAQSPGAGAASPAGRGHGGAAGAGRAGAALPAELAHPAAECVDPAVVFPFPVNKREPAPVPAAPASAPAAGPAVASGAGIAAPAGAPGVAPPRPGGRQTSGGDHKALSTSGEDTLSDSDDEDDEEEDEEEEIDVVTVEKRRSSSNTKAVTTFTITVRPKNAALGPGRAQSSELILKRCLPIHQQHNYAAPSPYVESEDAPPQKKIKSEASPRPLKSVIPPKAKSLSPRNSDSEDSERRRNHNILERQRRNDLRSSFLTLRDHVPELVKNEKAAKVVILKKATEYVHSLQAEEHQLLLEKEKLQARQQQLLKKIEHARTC
Method: as §1

SMILES | Dmax at 0.5 µM (MycC; L-363 cells, 24 h, 0.5 μM) [%] | Dmax at 1 µM (MycC; L-363 cells, 24 h, 1 μM) [%] | Dmax at 3 µM (MycC; L-363 cells, 24 h, 3 μM) [%] | Dmax at 6 µM (MycC; L-363 cells, 24 h, 6 μM) [%] | Dmax at 0.5 µM (MycN; SKNBE2 cells, 24 h, 0.5 μM) [%] | Dmax at 1 µM (MycN; SKNBE2 cells, 24 h) [%] | Dmax at 3 µM (MycN; SKNBE2 cells, 24 h, 3 μM) [%] | Dmax at 6 µM (MycN; SKNBE2 cells, 24 h, 6 μM) [%] | Dmax at 0.5 µM (MycC; L-363, 24 h) [%] | Dmax at 1 µM (MycC; L-363, 24 h) [%] | Dmax at 3 µM (MycC; L-363, 24 h) [%] | Dmax at 6 µM (MycC; L-363, 24 h) [%] | Dmax at 0.5 µM (MycN; SKNBE2, 24 h) [%] | Dmax at 3 µM (MycN; SKNBE2, 24 h) [%] | Dmax at 6 µM (MycN; SKNBE2, 24 h) [%]
c1cc(Nc2cc(C3CC3)[nH]n2)nc(NC2CCNCC2)n1 [Compound 29] | 50 to 79 | 80 to 100 | 80 to 100 | 80 to 100 |  | < 20 | 80 to 100 | 80 to 100 |  |  |  |  |  |  | 
CN1CCC(CNc2nccc(Nc3cc(C4CCCC4)[nH]n3)n2)CC1 [Compound 1] |  |  | < 20 | < 20 | 20 to 49 | < 20 | 20 to 49 | 80 to 100 |  |  |  |  |  |  | 
CN1CC2(CNc3nccc(Nc4cc(C5CC5)[nH]n4)n3)CC1C2 [Compound 4, N^4-(5-Cyclopropyl-1H-pyrazol-3-yl)-N^2-((2-methyl-2-azabicyclo[2.1.1]hexan-4-yl)methyl)pyrimidine-2,4-diamine] |  | < 20 | 20 to 49 | < 20 |  |  | < 20 | 20 to 49 |  |  |  |  |  |  | 
Cn1cc(C(=O)N2CC3(CC(Nc4nccc(Nc5cc(C6CCCC6)[nH]n5)n4)C3)C2)nn1 [Compound 39, (6-((4-((5-Cyclopentyl-1H-pyrazol-3-yl)amino)pyrimidin-2-yl)amino)-2-azaspiro[3.3]heptan-2-yl)(1-methyl-1H-1,2,3-triazol-4-yl)methanone] | 20 to 49 | 20 to 49 | 20 to 49 | 80 to 100 | 20 to 49 | < 20 | 80 to 100 | 80 to 100 |  |  |  |  |  |  | 
F[C@@H]1CNCC[C@@H]1Nc1nccc(Nc2cc(C3CC3)[nH]n2)n1 [Compound 44, N^4-(5-Cyclopropyl-1H-pyrazol-3-yl)-N^2-[(3R,4S)-3-fluoro-4-piperidyl]pyrimidine-2,4-diamine] | < 20 | 20 to 49 | 20 to 49 | < 20 | < 20 | 20 to 49 | 20 to 49 | 50 to 79 |  |  |  |  |  |  | 
CN1CCC(Nc2nccc(Nc3cc(C4CCCC4)[nH]n3)n2)CC1 [Compound 31] |  |  |  |  |  |  |  |  | 50 to 79 | 50 to 79 | 80 to 100 | 80 to 100 | < 20 | 80 to 100 | 80 to 100
CN1CC2(CC(Nc3nccc(Nc4cc(C5CC5)[nH]n4)n3)C2)C1 [Compound 36, N^4-(5-cyclopropyl-1H-pyrazol-3-yl)-N^2-(2-methyl-2-azaspiro[3.3]heptan-6-yl)pyrimidine-2,4-diamine] | 20 to 49 | 50 to 79 | 20 to 49 | 50 to 79 | < 20 | < 20 | 20 to 49 | 80 to 100 |  |  |  |  |  |  | 
CN1CC2(CCC(N(C)c3nccc(Nc4cc(C5CC5)[nH]n4)n3)CC2)C1 [Compound 49, N4-(5-Cyclopropyl-1H-pyrazol-3-yl)-N2-methyl-N2-(2-methyl-2-azaspiro[3.5]nonan-7-yl)pyrimidine-2,4-diamine] | 50 to 79 | 80 to 100 | 80 to 100 | 80 to 100 | 50 to 79 | 80 to 100 | 80 to 100 | 80 to 100 |  |  |  |  |  |  | 

More lines, main results first:

Dmax at 0.5 µM (MycC; L-363 cells, 24 h, 0.5 μM) [%] | Dmax at 1 µM (MycC; L-363 cells, 24 h, 1 μM) [%] | Dmax at 3 µM (MycC; L-363 cells, 24 h, 3 μM) [%] | Dmax at 6 µM (MycC; L-363 cells, 24 h, 6 μM) [%] | Dmax at 0.5 µM (MycN; SKNBE2 cells, 24 h, 0.5 μM) [%] | Dmax at 1 µM (MycN; SKNBE2 cells, 24 h) [%] | Dmax at 3 µM (MycN; SKNBE2 cells, 24 h, 3 μM) [%] | Dmax at 6 µM (MycN; SKNBE2 cells, 24 h, 6 μM) [%] | SMILES | Dmax at 0.5 µM (MycC; L-363, 24 h) [%] | Dmax at 1 µM (MycC; L-363, 24 h) [%] | Dmax at 3 µM (MycC; L-363, 24 h) [%] | Dmax at 6 µM (MycC; L-363, 24 h) [%] | Dmax at 0.5 µM (MycN; SKNBE2, 24 h) [%] | Dmax at 3 µM (MycN; SKNBE2, 24 h) [%] | Dmax at 6 µM (MycN; SKNBE2, 24 h) [%]
< 20 | 50 to 79 | 80 to 100 | 80 to 100 | 80 to 100 | 80 to 100 | 80 to 100 | 80 to 100 | CN1CC2(CCC(Nc3nccc(Nc4cc(C5CC5)[nH]n4)n3)CC2)C1 [Compound 34, N^4-(5-cyclopropyl-1H-pyrazol-3-yl)-N^2-(2-methyl-2-azaspiro[3.5]nonan-7-yl)pyrimidine-2,4-diamine] |  |  |  |  |  |  | 
80 to 100 | 80 to 100 | 80 to 100 | 80 to 100 | 80 to 100 | 80 to 100 | 80 to 100 | 80 to 100 | CN1CC2(CCC(Nc3nccc(Nc4cc(C5CCCC5)[nH]n4)n3)CC2)C1 [Compound 20, N^4-(5-Cyclopentyl-1H-pyrazol-3-yl)-N^2-(2-methyl-2-azaspiro[3.5]nonan-7-yl)pyrimidine-2,4-diamine] |  |  |  |  |  |  | 
 | < 20 | 20 to 49 | 80 to 100 | 20 to 49 | 20 to 49 | 80 to 100 | 80 to 100 | c1cc(Nc2cc(C3CC3)[nH]n2)nc(NC2CCC3(CC2)CNC3)n1 [Compound 33, N^4-(5-Cyclopropyl-1H-pyrazol-3-yl)-N^2-(2-azaspiro[3.5]nonan-7-yl)pyrimidine-2,4-diamine] |  |  |  |  |  |  | 
 | < 20 | 80 to 100 | 80 to 100 | 50 to 79 | 80 to 100 | 80 to 100 | 80 to 100 | c1cc(Nc2cc(C3CCCC3)[nH]n2)nc(NC2CCC3(CC2)CNC3)n1 [Compound 40, N^2-(2-Azaspiro[3.5]nonan-7-yl)-N^4-(5-cyclopentyl-1H-pyrazol-3-yl)pyrimidine-2,4-diamine] |  |  |  |  |  |  | 
80 to 100 | 80 to 100 | 80 to 100 | 80 to 100 | < 20 | < 20 |  | 50 to 79 | c1cc(Nc2cc(C3CCCC3)[nH]n2)nc(NC2CC3(CNC3)C2)n1 [Compound 30, N^4-(5-cyclopentyl-1H-pyrazol-3-yl)-N^2-(2-azaspiro[3.3]heptan-6-yl)pyrimidine-2,4-diamine] |  |  |  |  |  |  | 
